“Also recorded” adds a separate entry of the source.
What was measured:
[1] = test system: HIV-LTR promoter / tat protein; settings: through interaction with the tat protein; cited from earlier work
[2] = Viability of 293-EBNA cells, Alamar Blue; assay type: cell-based, human; settings: human, 293-ebna cells; read-out: LD50 (CMV assay, FIG. 9)
How it was run: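 Viability read with Alamar Blue, a vital dye reduced by mitochondrial dehydrogenases to a soluble product. Signal quantified as the absorbance difference between A570 and A600.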

[3] = test system: CMV promoter in 293-EBNA cells; assay: AP reporter gene expression from CMV promoter, 293-EBNA cells stably transfected with pCMV.AP; assay type: cell-based, human cytomegalovirus; human cells; settings: Homo sapiens, 293-EBNA; FIG. 8; read-out: concentration inhibiting AP activity by 50% (CMV assay)
How it was run: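 293-EBNA cells carrying episomal pCMV.AP, expressing secreted placental alkaline phosphatase from the CMV enhancer/promoter, treated with various compound concentrations. Reporter expression read as change in A405 of conditioned medium with substrate such as ortho-nitrophenol phosphate.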

[4] = Viability of 293-EBNA cells (dye not stated); settings: human
[5] = test system: HIV-LTR promoter (tat transactivation) in 293-EBNA cells; assay: AP reporter gene expression from HIV-LTR promoter with tat expression vector, 293-EBNA cells; assay type: cell-based, HIV; human cells
How it was run: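 293-EBNA cells were transiently co-transfected with an HIV-LTR-driven secreted placental alkaline phosphatase reporter and a tat(1–72) expression plasmid. At 24 h, the medium was switched to serum-free AIM V before compounds were added at various concentrations. Secreted AP activity was read colorimetrically at 405 nm 19–24 h later.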

[6] = test system: HIV in chronically infected cell lines; settings: cited from earlier work
HIV infection = settings: cited from earlier work
[7] = test system: HIV-1 strain JR-CSF in PBL; assay: HIV-1 p24 antigen expression in acutely infected peripheral blood lymphocytes (PBL); assay type: cell-based, HIV-1; human cells; settings: Human immunodeficiency virus 1, Lymphocyte, clinical isolate
Method: FIG. 17 illustrates a dose response curves of CT2576 on constitutive, TNF-α, and IL-6-mediated expression of HIV-1 in a chronically infected U1 cell line (left Y-axis) and of CT3537 on HIV expression in PBL acutely infected with the JR-CSF primary isolate (right Y-axis). U1 cells were incubated for four days after the addition of CT2576 with or without TNF-α (20 pg/ml) or IL-6 (1 ng/ml). PBL were inoculated with HIV at 10 ng virus/10^6 cells/well and incubated with various concentrations of CT3537 for 7 days. Each data point represents the average expression levels of HIV-1 p24-antigen in the cell supernatants measured by ELISA from triplicate samples with error bar indicating the SD.
Stable cell lines 293tar, 293tat and 293tat2 were generated by transfections using conditions described in (Tate et al., FASEB J. 4:227-231, 1990) with the plasmid pHIV.AP alone or along with either pHIV.tat or pSV2tat72, respectively. The assay of HIV-1 p24 antigen expression in the chronically HIV-1-infected promonocytic line U1 after 4 days and in acutely infected peripheral blood lymphocytes (PBL) after 7 days were described (Peterson et al., J. Clin. Invest. 89:574-580, 1992, and Brighty et al., Proc Natl. Acad. Sci. USA 88:7802-7805, 1991). […]

[8] = test system: HIV in infected monocytic cells; assay: HIV replication, gene expression and p24 release in infected monocytic cells stimulated by TNF; assay type: cell-based; settings: TNF activation
Method: (§1) Another assay examined the effect of compounds on chronically HIV-1 infected U1 cells. A relatively high density of U1 cells at 10^4 cells/well were incubated in the absence or presence of compounds for 4 days. HIV-1 p24 antigen expression in the culture media was measured by using a ELISA kit (Abbott). Alternatively, U1 cells were plated at a relatively low density of 2×10^3 cell/well plus or minus TNF at 20 pg/ml and plus or minus compounds. The expression of HIV-1 p24 antigen in culture media was measured by ELISA four days later.

[9] = test system: HIV-1 in U1 cells (constitutive expression); assay: Constitutive HIV-1 p24 antigen expression in chronically infected U1 cells; assay type: cell-based, HIV-1; human cells; settings: U1 cells plated at high density; in words
Method: as §1
(§2) Stable cell lines 293tar, 293tat and 293tat2 were generated by transfections using conditions described in (Tate et al., FASEB J. 4:227-231, 1990) with the plasmid pHIV.AP alone or along with either pHIV.tat or pSV2tat72, respectively. The assay of HIV-1 p24 antigen expression in the chronically HIV-1-infected promonocytic line U1 after 4 days and in acutely infected peripheral blood lymphocytes (PBL) after 7 days were described (Peterson et al., J. Clin. Invest. 89:574-580, 1992, and Brighty et al., Proc Natl. Acad. Sci. USA 88:7802-7805, 1991).
(§3) This example illustrates that CT2576 inhibited both constitutive and cytokine-induced HIV expression in a chronically-infected U1 cell line. A chronically HIV-1 infected human promonocyte cell line, U1 (Poli et al., J. Exp. Med. 172:151-158, 1990), was used as a model to see if the inhibitory effect of CT2576 on HIV-LTR driven reporter gene expression could be extended to block HIV replication per se in infected cells. TNF-α and IL-6 have been reported to upregulate the expression of HIV-1 in U1 cells (Poli et al., Proc Natl. Acad. Sci. USA 91:108-112, 1994). U1 cells were plated onto 24-well microtiter plates to study the dose-response effect of CT2576 on the constitutive (10^4 cells/well), TNF-α or IL-6 mediated (2×10^3 cells/well) expression of HIV-1. CT2576 was capable of inhibiting the constitutive, the TNF-α mediated, as well as the IL-6 mediated expression of HIV in U1 cells with an IC50 value of less than 1 μM (FIG. 17).

[10] = test system: LPAAT (lysophosphatidate acyl-CoA acyltransferase); assay: LPAAT inhibition in vitro; assay type: biochemical, mammalian; settings: Lineweaver-Burke graph
Description: The mammalian cell membrane associated enzyme lysophosphatidate acyl-CoA acyltransferase (LPAAT) catalyzes the transfer of acyl CoA from lysophosphatidic acid (lyso-PA) to phosphatidic acid (PA) species. Certain PA species function as lipid intermediates in cell activation and function directly as intracellular signaling molecules. PA is subsequently dephosphorylated to 1,2-sn diacylglycerol (DAG) via phosphatidate phosphohydrolase (PAH). The compounds that inhibit viral replication, gene expression and viral antigen release in infected cells also have decreased amounts of intracellular PA species that are formed in response to inflammatory cellular activation. […] Therefore, if PA derived from lyso-PA is an important intracellular signaling intermediate for TNF or IL-1 induced viral replication in virally-infectedcells, then inhibitors of PA formation will act to prevent progression of viral diseases by blocking cell signaling to stimulate virion formation.

[11] = test system: HIV-1 in U1 cells (TNF-α mediated expression); assay: TNF-α-mediated HIV-1 p24 antigen expression in chronically infected U1 cells; assay type: cell-based, HIV-1; human cells; settings: U1 cells; in words
Method: as §1, §2, §3

Compound: CNC1=Nc2ccc(Cl)cc2C(c2ccc[nH]2)=NC1 [Ro 24-7429]
- block of HIV-LTR promoter transcription [1]: blocks HIV-LTR promoter transcription

Compound: CCCCCCCCNCC(O)CCCCCCCCCn1c(=O)c2[nH]cnc2n(C)c1=O (stereo not shown) [CT1416, N-(11-octylamino-10-hydroxyundecyl)-3-methylxanthine]
- CC50 [2]: ~5 µM
- IC50 [3]: 2 to 6 µM
- CC50 [4]: ~5 µM
- effect on cell viability / cytotoxicity (293-EBNA cells): some cytotoxicity
- IC50 ([5]; Homo sapiens, 293-EBNA, read-out: concentration inhibiting AP expression by 50%): 1000 to 4000 nM

Compound: Cc1cn([C@H]2C[C@H](N=[N+]=[N-])[C@@H](CO)O2)c(=O)[nH]c1=O [AZT]
- activity on HIV replication in chronically infected cell lines [6]: not to be active
- progression of AIDS disease (HIV infection; asymptomatic patients, early stage HIV infection): no delay in the progression of AIDS disease
- CD4+ T cell number (HIV infection; treatment versus placebo group): consistently higher number of CD4^+ T cells

Compound: CCCCCCCCN(CC(CCCCCCCCCn1c(=O)c2c(ncn2C)n(C)c1=O)OC(C)=O)C(C)=O (stereo not shown) [CT3537, 1-[11-(N-octylacetamido)-10-acetoxyundecyl]-3,7-dimethylxanthine]
- IC50 [7]: < 1000 nM

Compound: C[C@@H](O)CCCCn1c(=O)c2c(ncn2C)n(C)c1=O [CT1501R, R-1-(5-hydroxyhexyl)-3,7-dimethylxanthine]
- antiviral activity in TNF-stimulated infected monocytic cells [8]: inhibiting HIV replication, gene expression and p24 release
- suppression of constitutive HIV-1 expression (p24) [9]: suppressed constitutive HIV-1 expression
- mode of LPAAT inhibition [10]: competitive inhibition
- suppression of TNFα-mediated HIV-1 expression (p24) [11]: suppressed HIV-1 expression
- effect on cell viability / cytotoxicity (293-EBNA cells): did not affect AP activity and cell viability significantly
- inhibition of AP expression (HIV-LTR promoter) ([5]; 293-EBNA cells, HIV promoter, in words): No appreciable inhibition of AP expression; also recorded: did not affect AP activity
